Data as given in patent US10945986B2, “Treatment for ischemic stroke” (CHS Pharma, Inc., priority 2012, dated 2021).

B1: granulocyte colony-stimulating factor (protein, UniProt P09919 31-207, looked up)
Granulocyte …: TPLGPASSLPQSFLLKCLEQVRKIQGDGAALQEKLVSECATYKLCHPEELVLLGHSLGIPWAPLSSCPSQALQLAGCLSQLHSGLFLYQGLLQALEGISPELGPTLDTLQLDVADFATTIWQQMEELGMAPALQPTQGAMPAFASAFQRRAGGVLVASHLQSFLEVSYRVLRHLAQP
notes: granulocyte colony-stimulating factor; a stem cell enhancer and facilitator

Columns and labels:
[1] = tested on: C/EBP homologues protein (CHOP); test: CHOP expression (Western blot) in primary neuronal cultures subjected to hypoxia and reoxygenation; assay type: cell-based; conditions: 24 hours hypoxia, 16 hours reoxygenation; densitometry vs actin
Method: (§1) Primary neuronal cultures were subjected to 24 hours of hypoxia followed by 16 hours of reoxygenation and cells were harvested for protein extraction and Western blot analysis for expression of CHOP. Levels of CHOP were quantified by densitometry and expressed as a percentage of the signal for actin control samples.

[2] = tested on: middle cerebral artery occlusion (MCAO) stroke-induced brain infarction; test: MCAO rat stroke model, infarct size by TTC staining; assay type: in vivo, Sprague-Dawley rats; conditions: for reduction of ischemia-induced brain infarct size: DETC-MeSO 5.6 mg/kg i.p. 24 hr post MCAO/reperfusion, 8 animals; for effect of individual drug on ischemia-induced infarct size: individual drug at 1/10 dose (G-CSF 10 ug/kg; DETC-MeSO 0.56 mg/kg; sulindac 0.2 mg/kg), 24 hrs post MCAO
Bcl-2 = test: Western blot of Bcl-2 in core and penumbra, MCAO model; assay type: in vivo, rat
P-IRE-1 = P-IRE-1 expression (Western blot) in primary neuronal cultures subjected to hypoxia and reoxygenation; assay type: cell-based; conditions: 24 hours hypoxia, 16 hours reoxygenation; densitometry vs actin
Method: as §1, with “P-IRE-1.” for “CHOP.”, “P-IRE-1” for “CHOP”

Hsp27 = test: Western blot of Hsp27 in core and penumbra, MCAO model; assay type: in vivo, rat; conditions: DETC-MeSO treatment prior to MCAO surgery and reperfusion, N=8
Excerpt: Western blotting on the core and the penumbra tissue of both hemispheres was employed for analysis of the expression of key proteins involved in apoptosis (Bcl-2), and cell protection and survival e.g., two heat shock proteins (HSP27, HSP70) and AKT.

CHOP = test: Western blot of CHOP, MCAO model; assay type: in vivo, rat; conditions: G-CSF, Western blotting
pAKT = conditions: rat, in vivo
JNK = conditions: rat, in vivo

Molecule | CHOP expression of hypoxia cells compared to DETC-MeSO-treated cells subjected to hypoxia [1] | infarct size as % of the area of the infarcts in the no-drug control group ([2]; 2 injections: 60 minutes before ischemia and 20 minutes before start of reperfusion, TTC) [%] | reduction of ischemia-induced brain infarct size ([2]; daily, 4 days) | reduction of ischemia-induced brain infarct size ([2]; daily, 8 days) | brain infarct size (morphological observation, TTC) ([2]; DETC-MeSO 5.6 mg/kg intraperitoneal 24 hr post MCAO/reperfusion, daily, both 4 and 8 days) | brain infarct size ([2]; DETC-MeSO 5.6 mg/kg one hour before MCAO surgery and reperfusion, continued 4 days, sacrificed 4th day, 1% TTC) | decrease in infarct size compared with the no-drug treated group ([2]; DETC-MeSO 5.6 mg/kg pre-MCAO, 4 days, at 6 mm from frontal pole, N=21) [%] | brain infarct size compared to the control group ([2]; DETC-MeSO 1-7 mg, two injections (1 hr before MCAO surgery, day 11), sacrificed 11th day, 1% TTC) | effect of individual drug on ischemia-induced infarct size ([2]; 8 days) | Bcl-2 expression vs non-treated control animals (Bcl-2; DETC-MeSO treatment prior to MCAO surgery and reperfusion, core and penumbra, N=8) | P-IRE-1 expression of hypoxia cells compared to DETC-MeSO-treated cells subjected to hypoxia (P-IRE-1) | Hsp-27 expression vs non-treated control animals (Hsp27) | CHOP expression (pro-apoptotic protein) (CHOP) | pAKT expression (pro-survival/anti-apoptotic marker) (pAKT) | ischemia-induced brain infarct size vs non-treated control animals ([2]; G-CSF 50 μg/kg, 24 hours post ischemia) | infarct volume vs control group ([2]; G-CSF 50 μg/kg, 24 hours post ischemia, n=5) | percentage of infarct volume in entire brain vs control group ([2]; G-CSF 50 μg/kg, 24 hours post ischemia, n=5, P<0.05) | Bcl-2 expression (pro-survival/anti-apoptotic marker) (Bcl-2; rat, in vivo) | JNK expression (pro-survival/anti-apoptotic marker) (JNK)
CCN(CC)C(=O)[S+](C)[O-] (stereo not drawn) [DETC-MeSO, S-methyl-N, N-diethylthiolcarbamate sulfoxide] | about double | 29 | 64+/−11% | 61+/−7% | significantly reduced | significantly reduced | 50 | significantly reduced | no significant effect | significantly increased | 3-3.5 times | significantly increased | – | – | – | – | – | – | –
B1 | – | – | – | – | – | – | – | – | no significant effect | – | – | – | down-regulation | up-regulation | greatly reduced | significantly reduced | significantly reduced | up-regulation | up-regulation
